The test system of one assay is EOC-20 microglia. The assay is described as follows: TNFα-stimulated nitrite production in EOC-20 microglia (Griess assay). Type of assay: cell-based, mouse. The note with it: for net suppression of nitrite: TNFα-stimulated, nitrite measured 24 h later. As to the method: Mouse EOC-20 microglia (American Tissue Type Collection, Gaithersville Md. USA) (Hensley et al., 2003; Walker et al., 1995) were grown in DMEM containing 20% L929 fibroblast-supplemented medium. Nitrite production by cytokine stimulated microglia was measured in cell culture medium using the Griess diazotization reaction as previously reported (Hensley et al., 2003; West et al., 2004).
The efficacy of (R)-LKE1 and (R)-LK as inhibitors of microglial cell activation in response to pro-inflammatory cytokines is shown in FIGS. 1A & 1B. EOC-20 murine microglial cells were pretreated 30 minutes with test compounds (e.g. (R)-LK or (R)-LKE1) dissolved in DMSO and diluted 1:200 into cell culture medium; or with DMSO vehicle only. Cells were then challenged with cytokine and allowed to incubate undisturbed in the cell culture incubator for 24 h prior to Griess assay. The lanthionine ketimine ester in this case is the structure shown above as (R)-LKE1. After drug treatment cells were then stimulated with 40 ng/mL recombinant murine tumor necrosis factor alpha (TNF α) plus 50U/mL interferon gamma (IFNγ). Nitrite (NO2^−) was measured in the cell culture medium 24 hours later, as an index of nitric oxide production. Cell viability was then assayed in the same cultures using a commercially available tetrazolium reduction assay (Promega OneStep™; Promega, Gaithersburg Md.). Cell culture methods were those published by the inventor (Hensley et al., 2003; West et al., 2004).
In a EOC-20 microglial assay the cells were stimulated with TNFα in the presence or absence of 100 microM (R)- or (S)-LK, and nitrite was measured 24 h later, the net suppression of nitrite was 13% by (S)-LK and 15% by (R)-LK.
The reduced lanthionine ketimine (i.e., TMDCA) was also tested against TNFα-stimulated nitrite production in the EOC-20 screen.

The test system of the next assay is NSC-34 cells. The assay is described as follows: NSC-34 viability after H2O2 challenge (tetrazolium reduction). The conditions noted are these: for protection against H2O2: 0.5 mM, 6 h pretreatment, 1 mM H2O2, viability 24 h later. Type of assay: cell-based, mouse. As to the method: NSC-34 cells were challenged directly with H2O2 for 24 h and the viability was assessed by tetrazolium reduction assay.
Furthermore, the invention contemplates that cytoprotection might be achieved by providing metabolic precursors to LK, rather than direct addition of the compound. For example, the inventor has studied the effects of NSC-34 cells treated with ethyl pyruvate in the presence or absence of lanthionine for 6 h prior to challenge with H2O2 and has assayed the viability of these cells 24 h later (FIG. 10). As reported in previous studies, ethyl pyruvate alone was protective against peroxide-induced cell death (Desagher et al., 1997; Nakamichi et al., 2005) with complete protection at ethyl pyruvate concentrations >1 mM (approximately 2-fold higher than ambient cell culture medium pyruvate concentrations; data not shown).
(R)-LKE1 protects NSC-34 motoneuron x neuroblastoma hybrid cells from hydrogen peroxide toxicity (FIG. 4). Cells were treated with the indicated concentration of (R)-LKE1. Thirty minutes later cells were challenged with the indicated concentration of hydrogen peroxide. Cell viability was assayed 24 hours later by tetrazolium reduction using a commercially available kit (Promega).
NSC-34 motor neuron-like cells, derived through the fusion of a neuroblastoma cell line with embryonic mouse motor neurons (Cashman et al., 1992), were grown in Dulbeco's modified essential medium (DMEM) plus 5% fetal bovine serum (FBS) and 1% penicillin plus 1% streptomycin (Pen/Strep). Recombinant TNFα and interferon gamma (IFNγ) were purchased from BD Biosciences (Pasadena Calif. USA). Lanthionine was purchased from Sequoia Research Products Ltd. (Pangbourne, UK). All other reagents were of the highest available commercial purity.
NSC-34 cells were exposed to 1 mM H2O2 with or without ethyl-pyruvate and/or lantionine (LK).

A further assay has as its target synaptosomal membranes. The note with it: read-out: affinity of binding to synaptosomal membranes; cited from earlier work.
Another assay concerns HT4 cells. The assay is described as follows: glutamate toxicity in HT4 cells (LDH leakage). Type of assay: cell-based. As to the method:
FIG. 13. (R)-LK protects HT4 cells against excitotoxicity. Determination of cell viability: HT4 cells were seeded in 6 well plates (1×10^7 cell/well). After 24 h, cell media was changed and (R)-LK (in DMSO) was used for 1 h prior to glutamate challenge. Powdered (R)-LK was dissolved in DMSO just before use. The viability of cells in culture was assessed by measuring the leakage of lactate dehydrogenase (LDH) from cells to media 18-24 h following glutamate treatment using the in vitro toxicology assay kit from Sigma Chemical Co. (St. Louis, Mo., USA). LDH leakage was determined using the following equation: % of total LDH leaked=(LDH activity in the cell culture media/total LDH activity) where total LDH activity=LDH activity in cell monolayer+LDH activity of detached cells+LDH activity in the cell culture media.
FIG. 14. (R)-LKE1 protects HT4 cells against excitotoxicity. […] The viability of cells in culture was assessed by measuring the leakage of lactate dehydrogenase (LDH) from cells to media 18-24 h following glutamate treatment using the in vitro toxicology assay kit from Sigma Chemical Co. (St. Louis, Mo., USA). LDH leakage was determined using the following equation: % of total LDH leaked=(LDH activity in the cell culture media/total LDH activity) where total LDH activity=LDH activity in cell monolayer+LDH activity of detached cells+LDH activity in the cell culture media. […]
On the technique in general: Release of lactate dehydrogenase indicates damage to the cell membrane.

Turning to `O=C(O)C1=N[C@H](C(=O)O)CSC1` [(R)-LK], the “net suppression of nitrite” value with EOC-20 microglia (100 microM) is recorded as 15%. The “protection from H2O2-induced cell death” value with NSC-34 cells (H2O2 challenge 24 h) is reported as “protects NSC-34 motor-neuron like cells from hydrogen peroxide toxicity”.
On to `O=C(O)C1=CSC[C@H](C(=O)O)N1` [(S)-LK], for which the “net suppression of nitrite” value in the assay on EOC-20 microglia (100 microM) came out at 13%.
`O=C(O)C1CSCC(C(=O)O)N1` (centres unmarked) [TMDCA, thiomorpholine dicarboxylic acid]: in the assay on EOC-20 microglia (100 microM, TNFα-stimulated nitrite production), the “inhibition of the cytokine effect” value is “about 32.5%”. Further, the “microglial activation, % of the maximum” value in the assay on EOC-20 microglia (100 microM, TNFα-stimulated nitrite production, +/- SD) was 67.5+/−3.8%.
In the case of `CCOC(=O)C(C)=O` [ethyl pyruvate], in the assay with NSC-34 cells, the “protection against H2O2” value was “significant but partial protection”. Moreover, the “concentration giving complete protection against peroxide-induced cell death” value with NSC-34 cells (data not shown) is reported as greater than 1 mM.
For `N[C@@H](CSC[C@H](N)C(=O)O)C(=O)O` [lanthionine], the “protection against H2O2” value in the assay with NSC-34 cells is “no protective effect”.
On to lanthionine ketimine [LK], for which, at synaptosomal membranes, the Kd was 50 nM. Moreover, the “inhibition of nitrite production” value with EOC-20 microglia (TNFα-stimulated EOC-20 microglia) is on record as “inhibited nitrite production”. In addition, the “glutamate toxicity (LDH release)” value in the assay with HT4 cells is listed as “significantly diminished glutamate toxicity”.

The record behind these values is patent publication US7683055B2, “Lanthionine-related compounds for the treatment of inflammatory diseases” (Oklahoma Medical Research Foundation, priority 2006, dated 2010).
